From paper PMC4710522, “A Novel Triazolopyridine-Based Spleen Tyrosine Kinase Inhibitor That Arrests Joint Inflammation” (PLoS ONE, 2016)
Where “and” joins values, the source holds several entries; their conditions need not be identical. Equal values may be shown once. Read-outs that look alike come from different tables or passages of the source.

Columns and labels:
Experiment in all cases: SelectScreen kinase assay
Format in all cases: biochemical
Tie2_h = molecular target: T1, Tie2_h (Homo sapiens, UniProt Q02763); conditions: KM ATP, read-out: % control
T1 construct: purchased Life Technologies (Invitrogen) SelectScreen, Z'-LYTE / Adapta
How it was run: (§1)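 Single-point inhibition at 3 µM compound. ATP: KM, 10 µM or 100 µM per enzyme as indicated. Output = % control (DMSO = 100%).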

PTK5_h = molecular target: T2, PTK5_h (Homo sapiens, UniProt P42685); conditions: KM ATP, read-out: % control
T2 construct: purchased Life Technologies (Invitrogen) SelectScreen, Z'-LYTE / Adapta
How it was run: as §1

PDK1_h = molecular target: T3, PDK1_h (Homo sapiens, UniProt O15530); conditions: read-out: % control
T3 construct: purchased Life Technologies (Invitrogen) SelectScreen, Z'-LYTE / Adapta
T3 sequence (O15530 whole entry): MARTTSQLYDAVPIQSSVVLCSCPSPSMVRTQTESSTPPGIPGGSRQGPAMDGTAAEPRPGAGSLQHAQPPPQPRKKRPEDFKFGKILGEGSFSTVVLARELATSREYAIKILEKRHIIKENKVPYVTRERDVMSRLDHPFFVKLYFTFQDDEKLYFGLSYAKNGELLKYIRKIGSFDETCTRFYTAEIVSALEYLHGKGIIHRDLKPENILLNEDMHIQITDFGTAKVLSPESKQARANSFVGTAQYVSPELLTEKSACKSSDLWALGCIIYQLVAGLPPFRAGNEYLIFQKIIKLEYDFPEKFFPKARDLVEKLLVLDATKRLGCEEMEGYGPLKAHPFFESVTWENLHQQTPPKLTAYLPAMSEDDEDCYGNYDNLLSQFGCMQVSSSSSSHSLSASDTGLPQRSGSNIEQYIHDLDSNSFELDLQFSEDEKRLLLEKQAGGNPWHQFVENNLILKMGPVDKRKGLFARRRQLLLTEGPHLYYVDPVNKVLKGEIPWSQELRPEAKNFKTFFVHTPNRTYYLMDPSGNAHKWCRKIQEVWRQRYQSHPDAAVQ
How it was run: as §1

CK1-epsilon_h = molecular target: T4, CK1-epsilon_h (Homo sapiens, UniProt P49674); conditions: KM ATP, read-out: % control
T4 construct: purchased Life Technologies (Invitrogen) SelectScreen, Z'-LYTE / Adapta
How it was run: as §1

Abl_T315I_h = molecular target: T5, Abl_T315I_h (Homo sapiens, UniProt P00519, T315I); conditions: KM ATP, read-out: % control
T5 construct: purchased Life Technologies (Invitrogen) SelectScreen, Z'-LYTE / Adapta
How it was run: as §1

Fer_h = molecular target: T6, Fer_h (Homo sapiens, UniProt P16591); conditions: KM ATP, read-out: % control
T6 construct: purchased Life Technologies (Invitrogen) SelectScreen, Z'-LYTE / Adapta
How it was run: as §1

Plk1_h = molecular target: T7, Plk1_h (Homo sapiens, UniProt P53350); conditions: KM ATP, read-out: % control
T7 construct: purchased Life Technologies (Invitrogen) SelectScreen, Z'-LYTE / Adapta
How it was run: as §1

PRKG1_h = molecular target: T8, PRKG1_h (Homo sapiens, UniProt Q13976); conditions: KM ATP, read-out: % control
T8 construct: purchased Life Technologies (Invitrogen) SelectScreen, Z'-LYTE / Adapta
How it was run: as §1

TrkA_h = molecular target: T9, TrkA_h (Homo sapiens, UniProt P04629); conditions: KM ATP, read-out: % control
T9 construct: purchased Life Technologies (Invitrogen) SelectScreen, Z'-LYTE / Adapta
How it was run: as §1

Bmx_h = molecular target: T10, Bmx_h (Homo sapiens, UniProt P51813); conditions: KM ATP, read-out: % control
T10 construct: purchased Life Technologies (Invitrogen) SelectScreen, Z'-LYTE / Adapta
How it was run: as §1

MLK1_h = molecular target: T11, MLK1_h (Homo sapiens, UniProt P80192); conditions: KM ATP, read-out: % control
T11 construct: purchased Life Technologies (Invitrogen) SelectScreen, Z'-LYTE / Adapta
How it was run: as §1

SGK3_h = molecular target: T12, SGK3_h (Homo sapiens, UniProt Q96BR1); conditions: KM ATP, read-out: % control
T12 construct: purchased Life Technologies (Invitrogen) SelectScreen, Z'-LYTE / Adapta
How it was run: as §1

SIK2_h = molecular target: T13, SIK2_h (Homo sapiens, UniProt Q9H0K1); conditions: KM ATP, read-out: % control
T13 construct: purchased Life Technologies (Invitrogen) SelectScreen, Z'-LYTE / Adapta
How it was run: as §1

EphB4_h = molecular target: T14, EphB4_h (Homo sapiens, UniProt P54760); conditions: KM ATP, read-out: % control
T14 construct: purchased Life Technologies (Invitrogen) SelectScreen, Z'-LYTE / Adapta
How it was run: as §1

CDK5_p35_h = molecular target: T15, CDK5_p35_h (Homo sapiens, UniProt Q00535); conditions: KM ATP, read-out: % control
T15 construct: purchased Life Technologies (Invitrogen) SelectScreen, Z'-LYTE / Adapta
How it was run: as §1

CHK1_h = molecular target: T16, CHK1_h (Homo sapiens, UniProt O14757); conditions: KM ATP, read-out: % control
T16 construct: purchased Life Technologies (Invitrogen) SelectScreen, Z'-LYTE / Adapta
How it was run: as §1

KDR_h = KDR_h (Homo sapiens, UniProt P35968)
Sequence of KDR_h (P35968 20-1356): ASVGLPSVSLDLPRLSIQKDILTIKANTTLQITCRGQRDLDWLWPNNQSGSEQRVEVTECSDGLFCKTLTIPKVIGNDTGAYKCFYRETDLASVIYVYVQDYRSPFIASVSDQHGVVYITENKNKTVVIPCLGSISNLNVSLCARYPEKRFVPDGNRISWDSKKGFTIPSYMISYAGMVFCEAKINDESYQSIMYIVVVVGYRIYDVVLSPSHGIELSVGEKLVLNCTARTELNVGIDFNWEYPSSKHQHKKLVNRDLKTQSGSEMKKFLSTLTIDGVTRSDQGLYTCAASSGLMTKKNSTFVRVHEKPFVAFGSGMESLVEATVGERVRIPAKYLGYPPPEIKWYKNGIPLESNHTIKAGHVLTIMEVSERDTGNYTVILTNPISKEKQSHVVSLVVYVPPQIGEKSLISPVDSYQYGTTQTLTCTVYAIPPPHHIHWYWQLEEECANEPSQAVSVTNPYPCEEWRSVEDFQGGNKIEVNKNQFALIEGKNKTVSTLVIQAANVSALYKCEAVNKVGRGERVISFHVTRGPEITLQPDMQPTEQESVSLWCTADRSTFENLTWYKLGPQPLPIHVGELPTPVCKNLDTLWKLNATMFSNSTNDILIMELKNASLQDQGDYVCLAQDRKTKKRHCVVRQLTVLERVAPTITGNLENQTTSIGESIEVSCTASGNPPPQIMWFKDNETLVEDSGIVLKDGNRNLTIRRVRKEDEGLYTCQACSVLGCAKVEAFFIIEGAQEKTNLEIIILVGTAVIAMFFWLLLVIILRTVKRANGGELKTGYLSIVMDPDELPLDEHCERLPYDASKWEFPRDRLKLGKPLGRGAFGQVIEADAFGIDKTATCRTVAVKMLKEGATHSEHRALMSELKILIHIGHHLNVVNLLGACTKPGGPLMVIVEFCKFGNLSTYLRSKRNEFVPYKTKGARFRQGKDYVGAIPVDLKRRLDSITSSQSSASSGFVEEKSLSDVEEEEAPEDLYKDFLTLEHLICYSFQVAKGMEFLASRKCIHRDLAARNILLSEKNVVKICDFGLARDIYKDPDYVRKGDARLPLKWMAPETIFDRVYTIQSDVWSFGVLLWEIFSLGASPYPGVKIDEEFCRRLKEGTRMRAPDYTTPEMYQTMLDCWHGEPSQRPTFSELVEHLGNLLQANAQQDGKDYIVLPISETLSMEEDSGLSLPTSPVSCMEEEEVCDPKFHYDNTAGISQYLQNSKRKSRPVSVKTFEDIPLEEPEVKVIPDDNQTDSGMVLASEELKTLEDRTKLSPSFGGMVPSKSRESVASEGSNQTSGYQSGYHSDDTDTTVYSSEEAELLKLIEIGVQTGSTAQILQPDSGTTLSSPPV
How it was run: as §1

p38-gamma_h = molecular target: T17, p38-gamma_h (Homo sapiens, UniProt P53778); conditions: KM ATP, read-out: % control
T17 construct: purchased Life Technologies (Invitrogen) SelectScreen, Z'-LYTE / Adapta
How it was run: as §1

Tyk2_h = Tyk2_h (Homo sapiens, UniProt P29597)
Sequence of Tyk2_h (P29597 whole entry): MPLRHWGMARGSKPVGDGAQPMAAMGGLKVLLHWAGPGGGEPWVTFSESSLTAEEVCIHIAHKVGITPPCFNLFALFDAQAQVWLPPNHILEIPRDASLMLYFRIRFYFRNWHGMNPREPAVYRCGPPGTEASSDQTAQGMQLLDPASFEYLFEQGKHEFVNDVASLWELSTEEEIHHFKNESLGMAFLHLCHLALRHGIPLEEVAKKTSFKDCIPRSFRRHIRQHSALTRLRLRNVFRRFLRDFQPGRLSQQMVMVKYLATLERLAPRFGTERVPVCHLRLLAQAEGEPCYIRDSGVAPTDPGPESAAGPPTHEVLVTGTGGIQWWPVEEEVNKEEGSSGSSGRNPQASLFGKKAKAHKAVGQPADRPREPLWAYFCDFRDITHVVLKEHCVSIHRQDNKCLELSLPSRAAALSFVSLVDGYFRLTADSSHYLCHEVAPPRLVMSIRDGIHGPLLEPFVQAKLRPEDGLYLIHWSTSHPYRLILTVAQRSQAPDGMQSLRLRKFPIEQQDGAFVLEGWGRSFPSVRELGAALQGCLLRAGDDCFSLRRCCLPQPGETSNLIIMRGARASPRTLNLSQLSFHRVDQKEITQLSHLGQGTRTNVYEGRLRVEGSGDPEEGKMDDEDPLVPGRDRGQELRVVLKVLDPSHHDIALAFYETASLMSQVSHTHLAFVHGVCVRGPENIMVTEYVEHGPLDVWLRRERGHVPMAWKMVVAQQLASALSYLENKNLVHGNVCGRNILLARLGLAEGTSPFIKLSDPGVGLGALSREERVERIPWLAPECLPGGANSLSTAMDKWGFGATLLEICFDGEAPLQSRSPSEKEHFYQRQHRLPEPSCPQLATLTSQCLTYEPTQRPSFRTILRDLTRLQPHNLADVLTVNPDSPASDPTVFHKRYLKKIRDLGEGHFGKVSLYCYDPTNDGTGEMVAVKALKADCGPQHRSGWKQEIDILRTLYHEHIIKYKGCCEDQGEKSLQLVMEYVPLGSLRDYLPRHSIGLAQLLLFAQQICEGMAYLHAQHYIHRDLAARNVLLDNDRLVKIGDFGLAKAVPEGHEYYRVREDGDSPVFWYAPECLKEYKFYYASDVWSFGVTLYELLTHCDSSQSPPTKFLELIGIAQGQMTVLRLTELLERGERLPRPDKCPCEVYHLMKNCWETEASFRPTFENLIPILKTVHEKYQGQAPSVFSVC
How it was run: as §1

CLK3_h = molecular target: T18, CLK3_h (Homo sapiens, UniProt P49761); conditions: KM ATP, read-out: % control
T18 construct: purchased Life Technologies (Invitrogen) SelectScreen, Z'-LYTE / Adapta
How it was run: as §1

EphA1_h = molecular target: T19, EphA1_h (Homo sapiens, UniProt P21709); conditions: KM ATP, read-out: % control
T19 construct: purchased Life Technologies (Invitrogen) SelectScreen, Z'-LYTE / Adapta
How it was run: as §1

JNK1-alpha1_h = molecular target: T20, JNK1-alpha1_h (Homo sapiens, UniProt P45983); conditions: 100 µM ATP, read-out: % control
T20 construct: purchased Life Technologies (Invitrogen) SelectScreen, Z'-LYTE / Adapta
How it was run: as §1

ARK5_h = molecular target: T21, ARK5_h (Homo sapiens, UniProt O60285); conditions: KM ATP, read-out: % control
T21 construct: purchased Life Technologies (Invitrogen) SelectScreen, Z'-LYTE / Adapta
How it was run: as §1

SRPK1_h = molecular target: T22, SRPK1_h (Homo sapiens, UniProt Q96SB4); conditions: KM ATP, read-out: % control
T22 construct: purchased Life Technologies (Invitrogen) SelectScreen, Z'-LYTE / Adapta
How it was run: as §1

FGFR2_h = molecular target: T23, FGFR2_h (Homo sapiens, UniProt P21802); conditions: KM ATP, read-out: % control
T23 construct: purchased Life Technologies (Invitrogen) SelectScreen, Z'-LYTE / Adapta
How it was run: as §1

MAPK3_h = molecular target: T24, MAPK3_h (Homo sapiens, UniProt P27361); conditions: KM ATP, read-out: % control
T24 construct: purchased Life Technologies (Invitrogen) SelectScreen, Z'-LYTE / Adapta
How it was run: as §1

ZAP-70_h = ZAP-70_h (Homo sapiens, UniProt P43403)
Sequence of ZAP-70_h (P43403 whole entry): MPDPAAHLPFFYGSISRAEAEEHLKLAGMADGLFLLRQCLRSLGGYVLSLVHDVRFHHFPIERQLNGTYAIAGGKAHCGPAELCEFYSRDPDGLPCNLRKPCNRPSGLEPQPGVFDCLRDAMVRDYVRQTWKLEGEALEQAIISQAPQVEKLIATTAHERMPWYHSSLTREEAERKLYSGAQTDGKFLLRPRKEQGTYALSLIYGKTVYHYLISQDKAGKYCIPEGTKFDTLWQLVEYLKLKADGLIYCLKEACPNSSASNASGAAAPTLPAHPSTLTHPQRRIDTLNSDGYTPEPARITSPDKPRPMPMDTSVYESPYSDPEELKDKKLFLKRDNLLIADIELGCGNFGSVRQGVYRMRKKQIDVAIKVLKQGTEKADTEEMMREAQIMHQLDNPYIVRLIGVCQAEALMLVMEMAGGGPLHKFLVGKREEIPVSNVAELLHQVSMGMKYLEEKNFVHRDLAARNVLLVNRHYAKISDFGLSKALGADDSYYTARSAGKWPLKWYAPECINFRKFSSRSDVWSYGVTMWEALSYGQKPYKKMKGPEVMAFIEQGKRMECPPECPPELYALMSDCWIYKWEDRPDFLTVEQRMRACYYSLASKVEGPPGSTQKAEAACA
How it was run: as §1

CK1-alpha1_h = molecular target: T25, CK1-alpha1_h (Homo sapiens, UniProt P48729); conditions: KM ATP, read-out: % control
T25 construct: purchased Life Technologies (Invitrogen) SelectScreen, Z'-LYTE / Adapta
How it was run: as §1

MEK1_h = molecular target: T26, MEK1_h (Homo sapiens, UniProt Q02750); conditions: 100 µM ATP, read-out: % control
T26 construct: purchased Life Technologies (Invitrogen) SelectScreen, Z'-LYTE / Adapta
How it was run: as §1

ErbB4_h = molecular target: T27, ErbB4_h (Homo sapiens, UniProt Q15303); conditions: KM ATP, read-out: % control
T27 construct: purchased Life Technologies (Invitrogen) SelectScreen, Z'-LYTE / Adapta
How it was run: as §1

PDGFR-alpha_h = PDGFR-alpha_h (Homo sapiens, UniProt P16234)
Sequence of PDGFR-alpha_h (P16234 24-1089): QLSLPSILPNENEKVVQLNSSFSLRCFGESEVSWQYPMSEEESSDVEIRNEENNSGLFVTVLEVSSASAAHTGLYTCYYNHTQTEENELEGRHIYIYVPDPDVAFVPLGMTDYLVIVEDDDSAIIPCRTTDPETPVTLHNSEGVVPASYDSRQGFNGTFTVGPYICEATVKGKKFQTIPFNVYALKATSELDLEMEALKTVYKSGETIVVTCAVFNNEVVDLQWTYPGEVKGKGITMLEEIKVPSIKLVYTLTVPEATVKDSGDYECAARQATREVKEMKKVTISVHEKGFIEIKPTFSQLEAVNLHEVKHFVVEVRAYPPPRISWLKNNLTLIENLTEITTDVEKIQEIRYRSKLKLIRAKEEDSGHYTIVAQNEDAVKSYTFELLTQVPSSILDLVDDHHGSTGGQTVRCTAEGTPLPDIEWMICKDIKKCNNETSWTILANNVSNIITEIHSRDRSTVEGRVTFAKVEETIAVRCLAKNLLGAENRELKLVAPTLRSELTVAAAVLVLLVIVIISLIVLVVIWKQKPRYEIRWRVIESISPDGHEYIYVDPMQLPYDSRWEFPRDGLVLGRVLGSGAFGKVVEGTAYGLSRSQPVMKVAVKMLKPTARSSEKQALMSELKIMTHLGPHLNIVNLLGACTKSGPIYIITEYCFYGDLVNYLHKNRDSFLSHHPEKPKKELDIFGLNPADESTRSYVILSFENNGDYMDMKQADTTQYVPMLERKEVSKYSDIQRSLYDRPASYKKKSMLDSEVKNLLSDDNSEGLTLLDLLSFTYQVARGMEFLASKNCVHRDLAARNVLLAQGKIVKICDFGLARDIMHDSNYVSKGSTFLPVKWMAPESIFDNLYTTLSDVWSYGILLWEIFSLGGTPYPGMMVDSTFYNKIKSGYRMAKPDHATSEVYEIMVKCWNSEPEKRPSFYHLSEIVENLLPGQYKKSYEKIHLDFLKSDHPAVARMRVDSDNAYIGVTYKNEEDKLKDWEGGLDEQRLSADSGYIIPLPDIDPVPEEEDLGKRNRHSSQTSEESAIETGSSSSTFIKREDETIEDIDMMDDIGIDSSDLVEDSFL
How it was run: as §1

PKC-theta_h = molecular target: T28, PKC-theta_h (Homo sapiens, UniProt Q04759); conditions: KM ATP, read-out: % control
T28 construct: purchased Life Technologies (Invitrogen) SelectScreen, Z'-LYTE / Adapta
How it was run: as §1

Aurora-C_h = molecular target: T29, Aurora-C_h (Homo sapiens, UniProt Q9UQB9); conditions: KM ATP, read-out: % control
T29 construct: purchased Life Technologies (Invitrogen) SelectScreen, Z'-LYTE / Adapta
T29 sequence (Q9UQB9 whole entry): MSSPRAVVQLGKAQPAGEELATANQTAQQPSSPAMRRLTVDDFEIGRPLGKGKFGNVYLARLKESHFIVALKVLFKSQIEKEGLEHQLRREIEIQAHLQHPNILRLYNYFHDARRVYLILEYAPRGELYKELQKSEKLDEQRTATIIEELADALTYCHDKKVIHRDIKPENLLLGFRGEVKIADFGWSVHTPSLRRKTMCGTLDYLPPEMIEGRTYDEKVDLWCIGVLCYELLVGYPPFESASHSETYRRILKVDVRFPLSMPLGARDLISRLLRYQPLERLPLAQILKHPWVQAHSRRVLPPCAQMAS
How it was run: as §1

[1] = 3 µM, KM ATP, read-out: % control
[2] = 10-point dose-response, commercial vendor

Question: Which remaining activity at 3 µM (Tie2_h) does the source give for `c1cc(CC2CCOCC2)n2nc(Nc3ccc4c(NC5CCOCC5)n[nH]c4c3)nc2c1` [CC-509, [3-(2H-3,4,5,6-tetrahydropyran-4-ylamino)(1H-indazol-6-yl)][5-(2H-3,4,5,6-tetrahydropyran-4-ylmethyl)(2H-1,2,4-triazolo[1,5-a]pyridin-2-yl)]amine] here?
Answer: The remaining activity at 3 µM was 87%.

Question: What about the remaining activity at 3 µM (PTK5_h) of the same compound?
Answer: Its remaining activity at 3 µM is 86%.

Question: And the remaining activity at 3 µM (PDK1_h; 100 µM ATP)?
Answer: The remaining activity at 3 µM was 78%.

Question: What about the remaining activity at 3 µM (PDK1_h; KM ATP) of the same compound?
Answer: The remaining activity at 3 µM was 47%.

Question: And the remaining activity at 3 µM (CK1-epsilon_h)?
Answer: The remaining activity at 3 µM was 89%.

Question: And the remaining activity at 3 µM (Abl_T315I_h)?
Answer: Its remaining activity at 3 µM is 34%.

Question: And the remaining activity at 3 µM (Fer_h)?
Answer: Its remaining activity at 3 µM is 40%.

Question: What about the remaining activity at 3 µM (Plk1_h) of the same compound?
Answer: The remaining activity at 3 µM was 88%.

Question: What about the remaining activity at 3 µM (PRKG1_h) of the same compound?
Answer: Its remaining activity at 3 µM is 96%.

Question: And the remaining activity at 3 µM (TrkA_h)?
Answer: Its remaining activity at 3 µM is 41%.

Question: And the remaining activity at 3 µM (Bmx_h)?
Answer: The remaining activity at 3 µM was 52%.

Question: What about the remaining activity at 3 µM (MLK1_h) of the same compound?
Answer: The remaining activity at 3 µM was 2%.

Question: What about the remaining activity at 3 µM (SGK3_h) of the same compound?
Answer: The remaining activity at 3 µM was 87%.

Question: What about the remaining activity at 3 µM (SIK2_h) of the same compound?
Answer: The remaining activity at 3 µM was 6%.

Question: And the remaining activity at 3 µM (EphB4_h)?
Answer: The remaining activity at 3 µM was 87%.

Question: What about the remaining activity at 3 µM (CDK5_p35_h) of the same compound?
Answer: Its remaining activity at 3 µM is 77%.

Question: And the remaining activity at 3 µM (CHK1_h)?
Answer: The remaining activity at 3 µM was 94%.

Question: And the remaining activity at 3 µM (KDR_h; [1])?
Answer: The remaining activity at 3 µM was 3%.

Question: And the IC50 (KDR_h; [2])?
Answer: The IC50 was 185 nM.

Question: And the remaining activity at 3 µM (p38-gamma_h)?
Answer: Its remaining activity at 3 µM is 95%.

Question: And the remaining activity at 3 µM (Tyk2_h; [1])?
Answer: Its remaining activity at 3 µM is 3%.

Question: What about the IC50 (Tyk2_h; [2]) of the same compound?
Answer: Its IC50 is 110 nM and 112 nM.

Question: What about the remaining activity at 3 µM (CLK3_h) of the same compound?
Answer: Its remaining activity at 3 µM is 81%.

Question: What about the remaining activity at 3 µM (EphA1_h) of the same compound?
Answer: Its remaining activity at 3 µM is 21%.

Question: And the remaining activity at 3 µM (JNK1-alpha1_h)?
Answer: Its remaining activity at 3 µM is 88%.

Question: And the remaining activity at 3 µM (ARK5_h)?
Answer: Its remaining activity at 3 µM is 7%.

Question: And the remaining activity at 3 µM (SRPK1_h)?
Answer: Its remaining activity at 3 µM is 98%.

Question: What about the remaining activity at 3 µM (FGFR2_h) of the same compound?
Answer: Its remaining activity at 3 µM is 46%.

Question: What about the remaining activity at 3 µM (MAPK3_h) of the same compound?
Answer: The remaining activity at 3 µM was 90%.

Question: And the remaining activity at 3 µM (ZAP-70_h; [1])?
Answer: Its remaining activity at 3 µM is 70%.

Question: And the IC50 (ZAP-70_h; [2])?
Answer: The IC50 was over 3 µM.

Question: And the remaining activity at 3 µM (CK1-alpha1_h)?
Answer: Its remaining activity at 3 µM is 88%.

Question: And the remaining activity at 3 µM (MEK1_h)?
Answer: The remaining activity at 3 µM was 65%.

Question: And the remaining activity at 3 µM (ErbB4_h)?
Answer: Its remaining activity at 3 µM is 91%.

Question: And the remaining activity at 3 µM (PDGFR-alpha_h; [1])?
Answer: The remaining activity at 3 µM was 4%.

Question: And the IC50 (PDGFR-alpha_h; [2])?
Answer: The IC50 was 204 nM.

Question: What about the remaining activity at 3 µM (PKC-theta_h) of the same compound?
Answer: The remaining activity at 3 µM was 78%.

Question: What about the remaining activity at 3 µM (Aurora-C_h) of the same compound?
Answer: The remaining activity at 3 µM was 18%.
